Laboratory results taken from US8940913B2, “Herbicides” (Syngenta Crop Protection, LLC, priority 2007, dated 2015).

Legend:
Format in all cases: in vivo
[1] = system: Alopecurus myosuroides (ALOMY); assay: Pre-emergence herbicidal activity, glasshouse pot test; conditions: 480 h, rate 250 g/ha, evaluated 20 days later, 100=total damage to plant, 0=no damage to plant
Procedure: (§1) Monocotyledonous and dicotyledonous test plants were sown in standard soil in pots. After cultivation for one day (pre-emergence) or after 10 days cultivation (post-emergence) under controlled conditions in a glasshouse, the plants were sprayed with an aqueous spray solution derived from the formulation of the technical active ingredient in 0.6 ml acetone and 45 ml formulation solution containing 10.6% Emulsogen EL (Registry number 61791-12-6), 42.2% N-methylpyrrolidone, 42.2% dipropylene glycol monomethyl ether (Registry number 34590-94-8) and 0.2% X-77 (Registry number 11097-66-8). The test plants were then grown in a greenhouse under optimum conditions until, 15 days later for post-emergence and 20 days for pre-emergence, the test was evaluated (100=total damage to plant; 0=no damage to plant). Test Plants: Alopecurus myosuroides (ALOMY), Avena fatua (AVEFA), Lolium perenne (LOLPE), Setaria faberi (SETFA), Digitaria sanguinalis (DIGSA), Echinochloa crus-galli (ECHCG)

Avena fatua (AVEFA) [2] = assay: as above; conditions: 480 h, rate 250 g/ha, evaluated 20 days later, 100=total damage to plant, 0=no damage to plant
Procedure: as §1

[3] = system: Digitaria sanguinalis (DIGSA); assay: as above; conditions: 480 h, rate 250 g/ha, evaluated 20 days later, 100=total damage to plant, 0=no damage to plant
Procedure: as §1

[4] = system: Echinochloa crus-galli (ECHCG); assay: as above; conditions: 480 h, rate 250 g/ha, evaluated 20 days later, 100=total damage to plant, 0=no damage to plant
Procedure: as §1

Lolium perenne (LOLPE) [5] = assay: as above; conditions: 480 h, rate 250 g/ha, evaluated 20 days later, 100=total damage to plant, 0=no damage to plant
Procedure: as §1

Setaria faberi (SETFA) [6] = assay: as above; conditions: 480 h, rate 250 g/ha, evaluated 20 days later, 100=total damage to plant, 0=no damage to plant
Procedure: as §1

[7] = system: Alopecurus myosuroides (ALOMY); assay: Post-emergence herbicidal activity, glasshouse pot test; conditions: 360 h, rate 125 g/ha, evaluated 15 days later, 100=total damage to plant, 0=no damage to plant
Procedure: as §1

Avena fatua (AVEFA) [8] = assay: as above; conditions: 360 h, rate 125 g/ha, evaluated 15 days later, 100=total damage to plant, 0=no damage to plant
Procedure: as §1

[9] = system: Digitaria sanguinalis (DIGSA); assay: as above; conditions: 360 h, rate 125 g/ha, evaluated 15 days later, 100=total damage to plant, 0=no damage to plant
Procedure: as §1

[10] = system: Echinochloa crus-galli (ECHCG); assay: as above; conditions: 360 h, rate 125 g/ha, evaluated 15 days later, 100=total damage to plant, 0=no damage to plant
Procedure: as §1

Lolium perenne (LOLPE) [11] = assay: as above; conditions: 360 h, rate 125 g/ha, evaluated 15 days later, 100=total damage to plant, 0=no damage to plant
Procedure: as §1

Setaria faberi (SETFA) [12] = assay: as above; conditions: 360 h, rate 125 g/ha, evaluated 15 days later, 100=total damage to plant, 0=no damage to plant
Procedure: as §1

Row | Structure (SMILES) | pest or weed control at 250 g/ha [1] [%] | pest or weed control at 250 g/ha (Avena fatua (AVEFA) [2]) [%] | pest or weed control at 250 g/ha [3] [%] | pest or weed control at 250 g/ha [4] [%] | pest or weed control at 250 g/ha (Lolium perenne (LOLPE) [5]) [%] | pest or weed control at 250 g/ha (Setaria faberi (SETFA) [6]) [%] | pest or weed control at 125 g/ha [7] [%] | pest or weed control at 125 g/ha (Avena fatua (AVEFA) [8]) [%] | pest or weed control at 125 g/ha [9] [%] | pest or weed control at 125 g/ha [10] [%] | pest or weed control at 125 g/ha (Lolium perenne (LOLPE) [11]) [%] | pest or weed control at 125 g/ha (Setaria faberi (SETFA) [12]) [%]
1 | CCc1ccc(-c2ccc(Cl)cc2C)cc1C1=C(O)[C@H]2[C@@H](C1=O)[C@]1(C)CC[C@@]2(C)O1 [Compound T28] | 0 | 30 | 30 | 0 | 40 | 20 | 90 | 90 | 70 | 100 | 50 | 100
2 | CC(=O)OC1=C(c2c(C)cc(-c3ccccc3)cc2C)C(=O)[C@@H]2[C@H]1[C@@]1(C)CC[C@]2(C)O1 [Compound P6] | 80 | 30 | 100 | 100 | 70 | 100 | 70 | 50 | 90 | 100 | 60 | 100
3 | CC(=O)OC1=C(c2c(C)cc(-c3ccccc3)cc2C)C(=O)[C@@H]2[C@H]1[C@H]1CC[C@@H]2O1 [Compound P3] | 100 | 60 | 100 | 80 | 100 | 100 | 100 | 80 | 80 | 100 | 100 | 90
4 | CCc1ccc(-c2ccc(Cl)s2)cc1C1=C(O)[C@H]2[C@@H](C1=O)[C@@H]1CC[C@H]2O1 [Compound T18] | 50 | 20 | 100 | 90 | 80 | 90 | 100 | 100 | 100 | 100 | 70 | 100
5 | CCc1ccc(-c2ccc(Cl)c(F)c2Cl)cc1C1=C(O)[C@H]2[C@@H](C1=O)[C@]1(C)CC[C@@]2(C)O1 [Compound T37] | 20 | 30 | 100 | 80 | 50 | 80 | 90 | 100 | 100 | 100 | 70 | 100
6 | CCc1ccc(-c2ccc(Cl)cc2)cc1C1=C(O)[C@H]2[C@@H](C1=O)[C@@H]1CC[C@H]2O1 [Compound T2] | 70 | 40 | 70 | 90 | 50 | 80 | 100 | 100 | 100 | 100 | 80 | 100
7 | CCc1ccc(-c2ccc(Cl)cc2F)cc1C1=C(O)[C@H]2[C@@H](C1=O)[C@@H]1CC[C@H]2O1 [Compound T10] | 70 | 70 | 100 | 100 | 80 | 100 | 90 | 90 | 100 | 100 | 90 | 100
8 | Cc1cc(-c2ccccc2)cc(C)c1C1=C(OC(=O)C(C)C)[C@H]2[C@@H](C1=O)[C@@H]1CC[C@H]2O1 [Compound P2] | 100 | 70 | 100 | 80 | 90 | 100 | 100 | 80 | 90 | 100 | 90 | 100
9 | Cc1cc(-c2ccccc2)cc(C)c1C1=C(OC(=O)C(C)(C)C)[C@H]2[C@@H](C1=O)[C@]1(C)CC[C@H]2O1 [Compound P7] | 100 | 90 | 100 | 90 | 100 | 100 | 100 | 100 | 100 | 100 | 80 | 100
10 | CCc1ccc(-c2ccc(Cl)cc2)cc1C1=C(O)[C@H]2[C@@H](C1=O)[C@]1(C)CC[C@@]2(C)O1 [Compound T3] | 70 | 80 | 100 | 100 | 80 | 100 | 100 | 90 | 90 | 90 | 80 | 90
11 | Cc1cc(-c2ccccc2)cc(C)c1C1=C(OC(=O)C(C)(C)C)[C@H]2[C@@H](C1=O)[C@@H]1CC[C@@]2(C)O1 [Compound P8] | 100 | 90 | 100 | 90 | 100 | 100 | 100 | 100 | 100 | 100 | 80 | 100
12 | CCc1ccc(-c2ccc(Cl)c(F)c2F)cc1C1=C(O)[C@H]2[C@@H](C1=O)[C@]1(C)CC[C@@]2(C)O1 [Compound T38] | 0 | 30 | 30 | 100 | 50 | 90 | 100 | 90 | 100 | 100 | 50 | 80
13 | CCc1ccc(-c2ccc(Cl)cc2)cc1C1=C(O)[C@H]2[C@@H](C1=O)[C@@H]1C=C[C@H]2O1 (racemic) [Compound T4, (1RS,2SR,6RS,7SR)-4-(4′-chloro-4-ethylbiphen-3-yl)-10-oxatricyclo[5.2.1.0^2,6]dec-8-ene-3,5-dione] | 60 | 50 | 100 | 100 | 60 | 100 | 80 | 60 | 100 | 100 | 80 | 100
14 | CCc1cc(-c2ccc(C)cc2)cc(CC)c1C1=C(OC(C)=O)[C@H]2[C@@H](C1=O)[C@@H]1CC[C@H]2O1 [Compound P9] | 50 | 60 | 40 | 100 | 70 | 60 | 80 | 80 | 100 | 100 | 80 | 90
